In PubChem BioAssay (NCI):
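The compound was tested at five concentrations on cells cultured in 96-well plates, with a 48-hour exposure period. TGI is the concentration that stops growth completely.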 Where a SMILES comes first, the peptide text is derived from it. [ ]: non-standard residue; d: D form. The star is where a group is joined. Chg = N[CH](C(=O)O)C1CCCCC1; Cbz = O=C(OCc1ccccc1)*; OBn = c1ccc(CO*)cc1

What was measured:
Assay in all cases: DTP human tumour cell line panel, 48 h
[1] = tested on: NCI-H522 lung
[2] = tested on: TK-10 renal
[3] = tested on: MDA-N
[4] = tested on: SR leukemia
[5] = tested on: SK-MEL-28 melanoma
[6] = tested on: MDA-MB-231 breast
[7] = tested on: NCI/ADR-RES ovarian
[8] = tested on: PC-3 prostate
[9] = tested on: A549 NSCLC
[10] = tested on: SF-539 CNS
[11] = tested on: UACC-62 melanoma
[12] = tested on: UO-31 renal
[13] = tested on: OVCAR-4 ovarian
[14] = tested on: ACHN renal
[15] = tested on: SW-620 colon
[16] = tested on: CCRF-CEM leukemia
[17] = tested on: OVCAR-3 ovarian
[18] = tested on: SF-268 CNS
[19] = tested on: HCT-15 colon
[20] = tested on: RPMI-8226 leukemia
[21] = tested on: M14 melanoma
[22] = tested on: HCT-116 colon
[23] = tested on: 786-0 renal
[24] = tested on: SNB-75 CNS
[25] = tested on: DU-145 prostate
[26] = tested on: MCF7 breast
[27] = tested on: SF-295 CNS
[28] = tested on: LOX IMVI melanoma
[29] = tested on: IGROV1 ovarian
[30] = tested on: SN12C renal
[31] = tested on: NCI-H226 lung
[32] = tested on: UACC-257 melanoma
[33] = tested on: SK-MEL-5 melanoma
[34] = tested on: HCC-2998 colon
[35] = tested on: T-47D breast
[36] = tested on: NCI-H460 lung
[37] = tested on: CAKI-1 renal
[38] = tested on: SK-MEL-2 melanoma
[39] = tested on: OVCAR-8 ovarian
[40] = tested on: COLO 205 colon
[41] = tested on: HOP-62 NSCLC
[42] = tested on: HT29 colon
[43] = tested on: HOP-92 NSCLC
[44] = tested on: OVCAR-5 ovarian
[45] = tested on: NCI-H23 lung
[46] = tested on: HS 578T breast
[47] = tested on: HL-60(TB) leukemia
[48] = tested on: EKVX NSCLC
[49] = tested on: U251 CNS
[50] = tested on: K-562 leukemia
[51] = tested on: MALME-3M melanoma
[52] = tested on: RXF 393 renal
[53] = tested on: SNB-19 CNS
[54] = tested on: MOLT-4 leukemia
[55] = tested on: MDA-MB-435
[56] = tested on: KM12 colon
[57] = tested on: SK-OV-3 ovarian
[58] = tested on: A498 renal

In the case of COC(=O)C(NC(=O)C(CC(=O)OCc1ccccc1)NC(=O)OCc1ccccc1)C1CCCCC1 (stereo not given) (Cbz-Asp(OBn)-[Chg]-OMe; configuration not given here), the TGI [1] is reported as over 100 µM, the TGI [2] is reported as over 100 µM and the TGI [3] is reported as over 100 µM. The TGI [4] was over 100 µM, the TGI [5] was over 100 µM and the TGI [6] was over 100 µM. The TGI [7] was over 100 µM, the TGI [8] was over 100 µM and the TGI [9] was over 100 µM. For the same compound, the TGI [10] was over 100 µM, the TGI [11] was over 100 µM and the TGI [12] was over 100 µM. The TGI [13] was over 100 µM, the TGI [14] was over 100 µM and the TGI [15] was over 100 µM. The TGI [16] was over 100 µM, the TGI [17] was over 100 µM and the TGI [18] was over 100 µM. The TGI [19] was over 100 µM, the TGI [20] was over 100 µM and the TGI [21] was over 100 µM. For the same compound, the TGI [22] was over 100 µM, the TGI [23] was over 100 µM and the TGI [24] was over 100 µM. The TGI [25] was over 100 µM, the TGI [26] was over 100 µM and the TGI [27] was over 100 µM. For the same compound, the TGI [28] was over 100 µM, the TGI [29] was over 100 µM and the TGI [30] was over 100 µM. The TGI [31] was over 100 µM, the TGI [32] was over 100 µM and the TGI [33] was over 100 µM. The TGI [34] was over 100 µM, the TGI [35] was over 100 µM and the TGI [36] was over 100 µM. The TGI [37] was over 100 µM, the TGI [38] was over 100 µM and the TGI [39] was over 100 µM. The TGI [40] was over 100 µM, the TGI [41] was over 100 µM and the TGI [42] was over 100 µM. It also gave a TGI [43] of over 100 µM, a TGI [44] of over 100 µM and a TGI [45] of over 100 µM. The TGI [46] was 81.3 µM, the TGI [47] was over 100 µM and the TGI [48] was over 100 µM. It also gave a TGI [49] of over 100 µM, a TGI [50] of over 100 µM and a TGI [51] of over 100 µM. The TGI [52] was over 100 µM, the TGI [53] was over 100 µM and the TGI [54] was over 100 µM. The TGI [55] was over 100 µM, the TGI [56] was over 100 µM and the TGI [57] was over 100 µM.

With COP(=O)(OC)/C(=C\C1=CN(C(c2ccccc2)(c2ccccc2)c2ccccc2)CN1)NC=O the TGI [1] was 33.5 µM, the TGI [2] was 49.7 µM and the TGI [3] was 28.4 µM. The TGI [4] was 33.7 µM, the TGI [5] was 32.5 µM and the TGI [6] was 33.9 µM. The TGI [7] was 29.9 µM, the TGI [8] was 19.7 µM and the TGI [9] was 30.5 µM. For the same compound, the TGI [12] was 29.1 µM, the TGI [13] was 39.6 µM and the TGI [14] was 28.9 µM. For the same compound, the TGI [15] was 42.4 µM, the TGI [17] was 29.8 µM and the TGI [19] was 33.1 µM. The TGI [20] was 39.9 µM, the TGI [21] was 43.9 µM and the TGI [22] was 29.6 µM. It also gave a TGI [24] of 39.8 µM, a TGI [25] of 35.2 µM and a TGI [27] of 30.2 µM. It also gave a TGI [28] of 26.3 µM, a TGI [29] of 49.2 µM and a TGI [30] of 36.3 µM. It also gave a TGI [31] of 39.5 µM, a TGI [32] of 34.1 µM and a TGI [33] of 29.6 µM. For the same compound, the TGI [34] was 38.4 µM, the TGI [35] was 49.2 µM and the TGI [36] was 27 µM. It also gave a TGI [37] of 39.5 µM, a TGI [38] of 30.4 µM and a TGI [39] of 54.8 µM. It also gave a TGI [40] of 40.5 µM, a TGI [41] of 31.3 µM and a TGI [42] of 28.2 µM. For the same compound, the TGI [43] was 23 µM, the TGI [44] was 31.8 µM and the TGI [45] was 36.3 µM. It also gave a TGI [58] of 32.2 µM, a TGI [46] of 51.2 µM and a TGI [47] of 50.9 µM. The TGI [49] was 29.8 µM, the TGI [50] was over 100 µM and the TGI [53] was 43.4 µM. The TGI [54] was 30.6 µM, the TGI [55] was 23.1 µM and the TGI [57] was 33.1 µM.
